In patent US20240409536A1, “COMPOUNDS AND METHODS FOR MODULATING SPLICING” (REMIX THERAPEUTICS INC., priority 2021, published 2024):

Tests used:
HiBiT-tagged MYB protein = assay: HiBiT protein abundance assay, MYB (K562 HiBiT knock-in cells); type: cell-based, human; details: 24 hours
Method: (§1) Compounds described herein were used to screen for effects on quantitative protein abundance using a HiBit assay system (Promega). Quantitative protein abundance was determined by measuring the protein levels of HiBit-tagged protein targets expressed in cell culture via luminescence using the Nano-Glo HiBiT Lytic Detection System, which uses a split complementation assay format to reconstitute NanoBiT enzyme to generate a luminescent signal. A protein abundance assay was developed such that endogenous protein targets could be modified with the HiBiT peptide tag and their abundance could be assessed after compound treatment. Briefly, K562 cell lines containing a HiBiT-modification were treated with various compounds described herein (e.g., compounds of Formulas (I), (II), or (III)). After treatment for 24 hours, the protein abundance of a specific target was determined by measuring luminescence.
(§2) • Promega Nano-Glo HiBiT Lytic Detection System (cat #N3030) • Corning 384-well TC-treated microplates (cat #3570) • Synthego Engineered Cells Knock-In Clones
(§3) Cells were maintained in IMDM with 10% FBS. Before the assay, cells were diluted with […] growth media (IMDM+1% FBS media) and were seeded in a 384-well plate at a density of 10000 cells/well (for each cell line listed in Table 6). Each compound was prepared as a 10-point 3-fold serial dilution in DMSO with the top dose at a final concentration of 10 μM in the well. Unmodified K562 cells were added at the previously specified density with DMSO to serve as an assay baseline and positive control (PC) and DMSO only with the respective modified cell lines was added to the negative control (NC) columns. Final DMSO concentration was kept at or below 0.25%. Treated cell plates were placed in an incubator at 37° C. with 5% CO2 for 24 hours. After 24 hours, 25 μL of Complete HiBit Lytic reagent was added to each well at room temperature (e.g. one plate requiring 10 mL Lytic Buffer, 100 μL LgBiT Protein, 200 μL Lytic Substrate), shaken for 5 minutes at 600 RPM, then left to sit for 10 minutes for signal to stabilize before reading on a Spark Cyto plate reader (Tecan) with a 500 ms measurement time.
(§4) To determine compound effects on protein abundance of each target in Table 6, the percent response for each respective cell line was calculated at each compound concentration as follows:
(§5) For the normalized response at each concentration, a four-parameter logistical regression was fit to the data and the response was interpolated at the 50% value to determine a concentration for protein abundance at 50% (IC50) the untreated control.

HiBiT-tagged HTT protein = assay: HiBiT protein abundance assay, HTT (K562 HiBiT knock-in cells); type: cell-based, human; details: 24 hours
Method: as §1, §2, §3, §4, §5

Compound	IC50 (HiBiT-tagged MYB protein)	IC50 (HiBiT-tagged HTT protein)
C[C@@H]1CN(c2ccc(C(=O)Nc3cc(F)c4nc(Cl)cn4c3)c3nccnc23)C[C@H](C)N1 [Compound 306]	0.1 to 1 µM	1 to 10 µM
Cc1cn2cc(NC(=O)c3ccc(N4C[C@@H](C)N[C@@H](C)C4)c4ncc(OC5CC5)nc34)cc(F)c2n1 [Compound 351]	0.1 to 1 µM	1 to 10 µM
Cc1cn2cc(NC(=O)c3ccc(N4C[C@@H](C)N[C@@H](C)C4)c4ncc(N(C)C)nc34)cc(F)c2n1 [Compound 283]	< 0.1 µM	0.1 to 1 µM
Cc1nc2c(F)cc(NC(=O)c3ccc(N4CCNCC4)c4ccnnc34)cc2s1 [Compound 118]	< 0.1 µM	0.1 to 1 µM
Cc1cn2cc(NC(=O)c3ccc(N4CCN5CCOC[C@@H]5C4)c4nccnc34)cc(F)c2n1 [Compound 255, (S)—N-(8-fluoro-2-methylimidazo[1,2-a]pyridin-6-yl)-8-(hexahydropyrazino[2,1-c][1,4]oxazin-8(1H)-yl)quinoxaline-5-carboxamide]	0.1 to 1 µM	0.1 to 1 µM
Cc1cn2cc(NC(=O)c3ccc(N4C5CNCC54)c4nccnc34)cc(F)c2n1 (stereo not drawn) [Compound 262, 8-{3,6-diazabicyclo[3.1.0]hexan-6-yl}-N-{8-fluoro-2-methylimidazo[1,2-a]pyridin-6-yl}quinoxaline-5-carboxamide]	0.1 to 1 µM	0.1 to 1 µM
Cc1cn2cc(NC(=O)c3ccc(N4CCNCC4)c4nccnc34)cc(F)c2n1 [Compound 111]	< 0.1 µM	0.1 to 1 µM
C[C@@H]1CN(c2ccc(C(=O)Nc3cc(F)c4nc(O)cn4c3)c3nccnc23)C[C@H](C)N1 [Compound 360]	> 10 µM	> 10 µM
Cc1cn2cc(NC(=O)c3ccc(N4CC[C@@H](N(C)C)C4)c4nccnc34)cc(F)c2n1 [Compound 242, 8-[(3R)-3-(dimethylamino)pyrrolidin-1-yl]-N-{8-fluoro-2-methylimidazo[1,2-a]pyridin-6-yl}quinoxaline-5-carboxamide]	0.1 to 1 µM	> 10 µM
C[C@@H]1CN(c2ccc(C(=O)Nc3cc(F)c4nn(C)cc4c3)c3nccnc23)C[C@@H](C)N1 [Compound 335]	0.1 to 1 µM	1 to 10 µM
COc1nc2c(F)cc(NC(=O)c3ccc(N4C[C@@H](C)N[C@@H](C)C4)c4nccnc34)cc2o1 [Compound 342]	> 10 µM	> 10 µM
Cc1cn2cc(NC(=O)c3ccc(N4C[C@@H](C)N[C@H](C)C4)c4nccnc34)cc(F)c2n1 [Compound 312]	< 0.1 µM	1 to 10 µM
Cc1cn2cc(NC(=O)c3ccc(N4C[C@@H](C)N[C@@H](C)C4)c4nccnc34)cc(Cl)c2n1 [Compound 304]	< 0.1 µM	> 10 µM
Cc1cn2cc(NC(=O)c3ccc(N4CC[C@@H](N)C4)c4nccnc34)cc(F)c2n1 [Compound 315]	0.1 to 1 µM	1 to 10 µM
Cc1cn2cc(NC(=O)c3ccc(N4CCN(CCO)C5(CC5)C4)c4nccnc34)cc(F)c2n1 [Compound 369]	0.1 to 1 µM	1 to 10 µM
CN[C@@H]1CCN(c2ccc(C(=O)Nc3cc(F)c4nc(C)cn4c3)c3nnccc23)C1 [Compound 238, (R)—N-(8-fluoro-2-methylimidazo[1,2-a]pyridin-6-yl)-5-(3-(methylamino)pyrrolidin-1-yl)cinnoline-8-carboxamide]	< 0.1 µM	0.1 to 1 µM
CNc1nc(NC(=O)c2ccc(N3C[C@@H](C)N[C@@H](C)C3)c3nccnc23)cn2cc(C)nc12 [Compound 308]	1 to 10 µM	> 10 µM
CCN1CCN(c2ccc(C(=O)Nc3cc(F)c4nc(C)cn4c3)c3nccnc23)CC12CC2 [Compound 365]	0.1 to 1 µM	0.1 to 1 µM
COc1nc2ccc(NC(=O)c3ccc(N4C[C@@H](C)N[C@@H](C)C4)c4nccnc34)cc2o1 [Compound 292]	1 to 10 µM	> 10 µM
Cc1cn2cc(NC(=O)c3ccc(N4CC(C)NC(C)C4)c4nc(C)c(C)nc34)cc(F)c2n1 (stereo not drawn) [Compound 257]	1 to 10 µM	1 to 10 µM
COc1nc(NC(=O)c2ccc(N3C[C@@H](C)N[C@@H](C)C3)c3nccnc23)nc2cn(C)nc12 [Compound 287]	1 to 10 µM	> 10 µM

Compound	IC50 (HiBiT-tagged MYB protein)	IC50 (HiBiT-tagged HTT protein)
Cc1cn2cc(NC(=O)c3ccc(N4CCNC5(CCC5)C4)c4nccnc34)cc(F)c2n1 [Compound 363]	< 0.1 µM	1 to 10 µM
C[C@@H]1CN(c2ccc(C(=O)Nc3ccc4nc(N(C)C)oc4c3)c3nccnc23)C[C@H](C)N1 [Compound 290]	> 10 µM	> 10 µM
Cc1cn2cc(NC(=O)c3ccc(N4CC[C@@H](N)C4)c4ccnnc34)cc(F)c2n1 [Compound 270]	0.1 to 1 µM	1 to 10 µM
Cc1cn2cc(NC(=O)c3ccc(N4CCNCC4)c4ccnnc34)c(C)cc2n1 [Compound 119]	0.1 to 1 µM	1 to 10 µM
Cc1cn2cc(NC(=O)c3ccc(N4C[C@@H](C)N[C@@H](C5CC5)C4)c4nccnc34)cc(F)c2n1 [Compound 266, 8-((3S,5R)-3-cyclopropyl-5-methylpiperazin-1-yl)-N-(8-fluoro-2-methylimidazo[1,2-a]pyridin-6-yl)quinoxaline-5-carboxamide]	< 0.1 µM	0.1 to 1 µM
Cc1cn2cc(NC(=O)c3ccc(N4CCC5(CCN5)C4)c4nccnc34)cc(F)c2n1 (stereo not drawn) [Compound 339]	0.1 to 1 µM	1 to 10 µM
Cc1cn2cc(NC(=O)c3ccc([C@@]45CCNCC4C5)c4nccnc34)cc(F)c2n1 (stereo in doubt) [Compound 248, 8-{3-azabicyclo[4.1.0]heptan-6-yl}-N-{8-fluoro-2-methylimidazo[1,2-a]pyridin-6-yl}quinoxaline-5-carboxamide 2,2,2-trifluoroacetate]	0.1 to 1 µM	1 to 10 µM
COc1cc2c(N3C[C@@H](C)N[C@@H](C)C3)ccc(C(=O)Nc3cc(F)c4nc(C)cn4c3)c2nn1 [Compound 273, 5-[(3R,5S)-3,5-dimethylpiperazin-1-yl]-N-{8-fluoro-2-methylimidazo[1,2-a]pyridin-6-yl}-3-methoxycinnoline-8-carboxamide]	0.1 to 1 µM	0.1 to 1 µM
COc1nc(NC(=O)c2ccc(N3C[C@@H](C)N[C@@H](C)C3)c3nccnc23)cn2cc(C)nc12 [Compound 277]	< 0.1 µM	0.1 to 1 µM
COc1cn2cc(NC(=O)c3ccc(N4C[C@@H](C)N[C@@H](C)C4)c4nccnc34)cc(F)c2n1 [Compound 357]	1 to 10 µM	> 10 µM
Cc1cn2cc(NC(=O)c3ccc(N4C[C@@H](C)N[C@@H](C)C4)c4ncc(Cl)nc34)cc(F)c2n1 [Compound 281]	1 to 10 µM	1 to 10 µM
Cc1cn2cc(NC(=O)c3ccc(N4CCNCC4)c4ccnnc34)ncc2n1 [Compound 120]	0.1 to 1 µM	> 10 µM
Cc1cn2nc(NC(=O)c3ccc(N4C[C@@H](C)N[C@@H](C)C4)c4nccnc34)cc2c(C)n1 [Compound 354]	0.1 to 1 µM	0.1 to 1 µM
CCOc1cnc2c(N3C[C@@H](C)N[C@@H](C)C3)ccc(C(=O)Nc3cc(F)c4nc(C)cn4c3)c2n1 [Compound 296]	< 0.1 µM	0.1 to 1 µM
COc1nc(NC(=O)c2ccc(N3C[C@@H](C)N[C@@H](C)C3)c3nccnc23)cc2cn(C)nc12 [Compound 352]	0.1 to 1 µM	1 to 10 µM
Cc1cn2cc(NC(=O)c3ccc(N4C[C@@H](C)N[C@@H](C)C4)c4ncccc34)cc(F)c2n1 [Compound 358]	> 10 µM	> 10 µM
Cc1cn2cc(NC(=O)c3ccc(N4CCC(NC5CC5)CC4)c4nccnc34)cc(F)c2n1 [Compound 258, 8-(4-(cyclopropylamino)piperidin-1-yl)-N-(8-fluoro-2-methylimidazo[1,2-a]pyridin-6-yl)quinoxaline-5-carboxamide]	< 0.1 µM	0.1 to 1 µM
COc1cnc2c(N3CC[C@@H](N(C)C)C3)ccc(C(=O)Nc3cc(F)c4nc(C)cn4c3)c2n1 [Compound 244, 8-[(3R)-3-(dimethylamino)pyrrolidin-1-yl]-N-{8-fluoro-2-methylimidazo[1,2-a]pyridin-6-yl}-3-methoxyquinoxaline-5-carboxamide]	< 0.1 µM	0.1 to 1 µM
Cc1cn2c(C)c(NC(=O)c3ccc(N4C[C@@H](C)N[C@@H](C)C4)c4nccnc34)cc(F)c2n1 [Compound 285]	0.1 to 1 µM	1 to 10 µM
C[C@@H]1CN(c2ccc(C(=O)Nc3cc(F)c4ncccc4c3)c3nccnc23)C[C@H](C)N1 [Compound 344]	1 to 10 µM	> 10 µM
Cc1cn2cc(NC(=O)c3ccc(N4CCNCC4)c4nncnc34)cc(F)c2n1 [Compound 345]	0.1 to 1 µM	1 to 10 µM
